For data set [1] the following is noted: cited from earlier work; for maximum observed plasma concentration (Cmax): oral administration.
For data set [2], the system named is premature ejaculation. The note with it: cited from earlier work.
In data set [3] the test system is erectile dysfunction. Kind of data set: Retrospective analysis of clomipramine with or without a commercial PDE5 inhibitor taken as needed: subjectively rated erection. The note with it: after 8 weeks, one patient per row.
Data set [4] deals with premature ejaculation. Briefly: Retrospective analysis of clomipramine with or without a commercial PDE5 inhibitor taken as needed: ejaculation time. The note with it: rated after 8 weeks, one patient per row.
In data set [5] the test system is SSRI-induced sexual dysfunction. To be noted: in vivo; cited from earlier work.
Data set [6] deals with erectile dysfunction. To be noted: oral administration of 50-100 mg; cited from earlier work.

The structures appear in SMILES notation. Where “and” joins values, the source holds several entries; their conditions need not be identical. Equal entries are not always repeated. Where two headings read alike, the source gives them in different places.

With `CN(C)CCCN1c2ccccc2CCc2ccc(Cl)cc21` [Clomipramine, clomipramine], the “time of peak plasma levels after dosage” value in data set [1] (much individual variation) was 2 to 6 h. In data set [1] (relative to tadalafil), the “time required to reach peak plasma concentration, longer than that required by tadalafil” value is “about 2 hours”. The “time required to reach peak plasma concentration, longer than that required by either vardenafil or sildenafil” value in data set [1] (relative to vardenafil or sildenafil) was 3 h. The “time to climax in premature ejaculators” value in the data set with premature ejaculation [2] (50 mg) is on record as “more than 8 minutes”. In addition, in the data set on premature ejaculation [2] (25 milligrams 12 to 24 hours before anticipated sexual activity, from about 1.5 to 2 minutes), the latency to ejaculation result is recorded as “about 8 minutes”. Besides, the “effect alone in men with premature ejaculations who were also impotent” value in the data set on premature ejaculation [2] (clomipramine alone) is recorded as “ineffective”. Also, the “Erection (% satisfaction) after (%)” value stood at 100% in the data set on erectile dysfunction [3] (Clomipramine 10 mg alone); 100% with erectile dysfunction [3] (Clomipramine 15 mg alone, NC denotes no complain); 100% in the data set on erectile dysfunction [3] (Clomipramine 25 mg alone, NC denotes no complain). Moreover, the “Ejaculation Time (minutes) after treatment” value in the data set on premature ejaculation [4] (Clomipramine 10 mg alone) is 10 min; in the data set with premature ejaculation [4] (Clomipramine 15 mg alone), 10 min and 4 min and 20 min; in the data set with premature ejaculation [4] (Clomipramine 25 mg alone) it was 7 minutes (2×) and 20 minutes (2×) and 15 minutes; in the data set on premature ejaculation [4] (Clomipramine 30 mg alone), 10 minutes (3×) and 15 minutes (2×) and 8 minutes and 4 minutes (2×) and 5 minutes and 20 minutes and 0.25 minutes and 3 minutes.
On to `CN[C@H]1CC[C@@H](c2ccc(Cl)c(Cl)c2)c2ccccc21` [Sertraline, sertraline], for which the “effect as ejaculation delaying agent” value in the data set on premature ejaculation [2] (4 hours before sex, primary premature ejaculation versus sildenafil-corrected erectile dysfunction) was “effective as ejaculation delaying agent only for patients having primary premature ejaculation”.
As to `CCCN(CCC)CCc1cccc2c1CC(=O)N2` [ropinrole], in data set [5], the “effect on sexual dysfunction induced by citalopram, sertraline, paroxetine, fluoxetine and venlafaxine treatment” value is on record as “effective”.
For the molecule `CCCc1nn(C)c2c(=O)[nH]c(-c3cc(S(=O)(=O)N4CCN(C)CC4)ccc3OCC)nc12` [sildenafil], the “maximum observed plasma concentration (Cmax)” value in data set [1] (50-100 mg) is 18 ng/mL. The “subjects studied found to respond well” value in the data set on erectile dysfunction [6] is listed as 82%. In addition, the “effect alone for men with premature ejaculation” value with premature ejaculation [2] (PDE5 inhibitor alone) was “ineffective”.
Take `CN1CC(=O)N2[C@H](c3ccc4c(c3)OCO4)c3[nH]c4ccccc4c3C[C@@H]2C1=O` [tadalafil]: in data set [1] (doses from 2.5 mg to 20 mg), the “Systemic exposure (AUC) versus dose” value is listed as “increases proportionately” and the “increase in Cmax versus dose” value is given as “slightly less than proportional”. Besides, in data set [1] (once-daily 20 mg dosing), the “degree of drug accumulation” value is listed as 1.6 fold and the “time to attain steady-state plasma concentrations” value is reported as no more than 5 days. The “maximum observed plasma concentration (Cmax)” value in data set [1] (20 mg) was 378 ng/mL.
For `CCCc1nc(C)c2c(=O)[nH]c(-c3cc(S(=O)(=O)N4CCN(CC)CC4)ccc3OCC)nn12` [vardenafil], in data set [1] (oral dosing, recommended dose range (5-20 mg)), the “AUC and Cmax versus dose” value was “increase in almost direct proportion to the dose”.
